Test results reported in US5171864A, “Di-(5-hydroxy-2(5H)-2-oxo-4-furyl)methyl-alpha,omega alkane-dioates and N,N-bis-(5-hydroxy-2(5H)-2-oxo-4-furyl)methyl-alpha,omega-dialkanoic acid amides as anti-inflammatory agents” (Allergan, Inc., priority 1991, dated 1992).
Read-outs that look alike come from different tables or passages of the source.

What was measured:
[1] = molecular target: phosphoinositide-specific phospholipase C; experiment: Inhibition of phosphoinositide-specific phospholipase C (PLC); type: biochemical; settings: procedure of Bennett et al, Molecular Pharmacology 32:587-593 (1987)
Text: Inhibition of Phosphoinositide-specific Phospholipase C
The effect of compounds of this invention on phosphoinositide-specific phospholipase C may be determined by procedures described by Bennett et al, Molecular Pharmacology 32:587-593 (1987).

[2] = molecular target: bee venom phospholipase A2 (Apis mellifera, UniProt P00630); experiment: biochemical; settings: read-out: PLA2 IC50
Sequence of bee venom phospholipase A2 (P00630 34-167 limits assumed): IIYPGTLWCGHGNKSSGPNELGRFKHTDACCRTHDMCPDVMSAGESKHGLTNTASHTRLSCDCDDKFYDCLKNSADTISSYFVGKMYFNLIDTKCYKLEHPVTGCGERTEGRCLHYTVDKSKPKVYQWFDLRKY

## O=C1C=C(COC(=O)CCCCCCCCCCC(=O)OCC2=CC(=O)OC2O)C(O)O1 (stereo not shown) [Compound 1, Di-[5-hydroxy-2(5H)-2-oxo-4-furyl]methyl dodecan-1,12-dioate]
[1]
  IC50: > 100000 nM
[2]
  IC50: 70 nM

## CC(C)(C)C(=O)OC1OC(=O)C=C1COC(=O)CCCCCCCCCCC(=O)OCC1=CC(=O)OC1OC(=O)C(C)(C)C (stereo not shown) [Compound 2, Di-[5tert-butanoyloxy-2(5H)-furano-4yl]methyl dodecan-1,12-dioate]
[1]
  IC50: > 100000 nM
[2]; pH 7.4
  IC50: > 1000 nM

## O=C(CCCCCCCCCCC(=O)NCC1=CC(=O)OC1O)NCC1=CC(=O)OC1O (stereo not shown) [Compound 3, N,N'-Bis(5-hydroxy-2(5H)-2-oxo-4-furyl)methyl-1,12-dodecanoic acid amide]
[1]
  IC50: > 100000 nM
[2]
  IC50: 30 nM

## O=C(CCCCCCCCCCC(=O)NCC1=CC(=O)OC1OC(=O)Nc1ccccc1)NCC1=CC(=O)OC1O (stereo not shown) [Compound 4, N-(5-Hydroxy-2(5H)2-oxo-4-furyl)methyl-N'-(5-phenylcarbamoyloxy-2(5H) 2-oxo-4-furyl)methyl-1,12-dodecanamide]
[1]
  IC50: > 100000 nM
[2]; pH 7.4
  IC50: > 1000 nM

## O=C(CCCCCCCCCCC(=O)NCC1=CC(=O)OC1OC(=O)Nc1ccccc1)NCC1=CC(=O)OC1OC(=O)Nc1ccccc1 (stereo not shown) [Compound 5, N,N'-bis(5-phenylcarbamoyloxy-2(5H)2-oxo-4-furyl)methyl-1.12-dodeca]
[1]
  IC50: > 100000 nM
[2]; pH 7.4
  IC50: > 1000 nM
